# Test results reported in patent US11761951B2, “Methods of selecting therapeutic molecules” (Bristol-Myers Squibb Company, priority 2015, dated 2023).
# Tests used:
# [1] = tested on: rat primary cortical neurons; experiment: Primary cortical neuron spontaneous calcium oscillation (FLIPR, fluo-4 AM); format: cell-based; settings: primary neuronal spontaneous calcium oscillations
# Description: (§1) To measure primary cortical neuron spontaneous calcium oscillation, rat primary cortical neurons were prepared from Sprague-Dawley rat embryos (E19). Cells were plated 25,000 cells/well onto 384 well poly-D-lysine coated FLIPR plates (Greiner Bio-One) in 25 μl/well Neurobasal media containing B27 supplement and 2 mM glutamine (day 1 in vitro, DIV1). Cells were grown for 11 days at 37° C. in 5% CO2 and fed with 25 μl of additional media on day 4 in vitro (“DIV04”) and day 8 in vitro (“DIV08”) for use on day 11 in vitro (“DIV11”). […] After 1 hr 20 μl of room temperature assay buffer was added and the cells were allowed to equilibrate to room temperature for 10 additional minutes and placed in the fluorescent imaging plate reader (FLIPR). Baseline signal (measurement of intracellular calcium) was read for 100 seconds (1 reading/second) before the addition of anti-sense oligomers. […] FLIPR signal was read for an additional 200 seconds (1 reading/second) after the addition of oligomer. A second 5 minute post addition plate read (300 one second points) on the FLIPR was conducted to allow for additional data capture. Raw data from the 5 minute read was exported and, using Excel, spike amplitude and frequency was calculated. Calculations were performed by measuring the average FLIPR signal over the 300 second read for control (non-treated) wells. […]
# AMPA receptor = AMPA receptor mediated spontaneous calcium oscillations in primary neurons; format: cell-based, rat; settings: 25 μM oligomer; presence or absence of 1 mM MgCl2 representing 100% control
# Description: as §1
# NMDA receptor = NMDA receptor mediated spontaneous calcium oscillations in primary neurons; format: cell-based, rat; settings: 25 μM oligomer; presence or absence of 1 mM MgCl2 representing 100% control
# Description: as §1
# [2] = tested on: central nervous system (CNS) network activity; experiment: CNS network activity in vivo (data not shown)
# [3] = tested on: spontaneous neuronal activity; experiment: Electrophysiologic spontaneous neuronal activity in vitro (data not shown); format: cell-based
molecule,measurement,setting,value
"6-Cyano-7-nitroquinoxaline-2,3-dione [CNQX]",reduction of calcium oscillations (total AMPA response in the assay),[1]; CNQX 3 μM,20%
[Cl-].[Cl-].[Mg+2] [MgCl2],reduction of calcium oscillations when NMDA receptor function was blocked,[1]; 1 mM MgCl2,about 80%
"TGTgatgcaggaGTT (antisense TGTGATGCAGGAGTT; listed as DNA, chemistry not given here) [ASO-00007]",inhibition of AMPA receptor mediated calcium oscillations,AMPA receptor,inhibited AMPA receptor
same,inhibition of NMDA receptor mediated calcium oscillations,NMDA receptor,not NMDA receptor
same,impact on central nervous system (CNS) network activity in vivo,[2],negatively impact
same,impact on electrophysiologic spontaneous neuronal activity in vitro,[3],negatively impact
